# Measurements published in patent US20210308101A1, “METHODS OF TREATING FIBROMYALGIA” (Aptinyx Inc., priority 2019, published 2021).
# Entries after “also recorded” stand apart in the source; their conditions may differ.
# Key:
# [1] = test system: resting state network connectivity; assay: rs-fcMRI group independent component analysis (DMN, SLN, DAN); format: in vivo, human
# Description: (§1) In order to quantify intrinsic brain connectivity, rs-fcMRI data were analyzed with both dual-regression ICA and seed-voxel approaches. These approaches are complementary, as they quantify intrinsic brain connectivity on a network level (dual regression probabilistic ICA) and a more specific region-focused level (seed-voxel).
# (§2) Resting state functional connectivity MRI data were preprocessed and analyzed using statistical parametric mapping software package Version 12, the CONN functional connectivity toolbox, and the GIFT toolbar, all running on MATLAB Version 9.2 or later. Upon collection of rs-fcMRI data, physiological artifacts were first removed using a custom MATLAB algorithm and slice-time corrected using Functional Magnetic Resonance Imaging of the Brain Software Library software. Preprocessing steps included motion correction, realignment, registration, normalization to standard Montreal Neurological Institute template, and smoothing (full width at half maximum Gaussian kernel of 6 or 8 mm).
# Group ICA was performed using the GIFT toolbar and component estimates were validated using Icasso software for 10 iterations. The number of independent components was limited to 25 to minimize splitting into subcomponents. Subject-specific spatial maps and time courses were back reconstructed using spatiotemporal regression and dual regression in GIFT. As for seed-based analyses, individual maps were passed onto group second level analyses in statistical parametric mapping, where differences in resting state network connectivity between placebo and drug images were performed.
# (§3) Several analyses were conducted with the fMRI resting state and task data. Results were assessed by: 1) a primary analysis, where a finding was deemed significant with a corrected cluster level p<0.05, derived from an uncorrected voxel-wise p<0.001, and 2) an exploratory analysis, where a finding was deemed significant with an uncorrected voxel-wise p<0.005 and having a cluster greater than or equal to 80 contiguous voxels. Results that met significance in the primary analyses had connectivity values extracted and imported into SPSS v25 where paired t-tests were performed to assess for potential outliers contributing to the finding. Remaining data were then correlated with clinical measures using parametric bivariate Pearson correlations. Results were deemed significant at p<0.05.
# Group ICA was performed (n=18) for the resting state scan, and the network components for the Default Mode Network, the Salience Network, and the Dorsal Attention Network were computed. […] With the exploratory analyses, resting state connectivity was decreased from the placebo visit to the NYX-2925 200 mg visit (placebo >NYX-2925 200 mg) between the Default Mode Network and the left mid cingulate cortex. […] In exploratory analyses, resting state functional connectivity was decreased from the placebo visit to the NYX-2925 200 mg visit (placebo >NYX-2925 200 mg) between the Salience Network and the right putamen/thalamus. Here, augmented connectivity between Salience Network, a network comprised of pronociceptive regions, and putamen and thalamus, regions also involved in nociception, was decreased following treatment with NYX-2925.
# [2] = test system: resting state functional connectivity; assay: rs-fcMRI seed-based region of interest functional connectivity; format: in vivo, human
# From the text: Resting state functional connectivity magnetic resonance imaging (rs-fcMRI) also uses noninvasive techniques to map blood flow in the brain. In rs-fcMRI, neural connections between different areas of the brain are identified by mapping regions of synchronous blood flow fluctuations. Synchronous blood fluctuations are examined to determine the strength of neural connections between different brain regions.
# Resting 6-minute scans, with subjects resting comfortably in the scanner with eyes open and fixated on a crosshair, were completed at the beginning of the scan session. Whole brain BOLD rs-fcMRI data were collected following same parameters used for evoked fMRI. Physiological data were also collected simultaneously with rs-fcMRI data, as cardiorespiratory fluctuations are known to influence rs-fcMRI intrinsic connectivity estimation within several brain networks
# as §1, §2
# Seed to whole brain functional connectivity analysis was performed using the CONN toolbox, Version 15, running on […]. […] Spheres were created (5 mm radius) around peak voxel coordinates and white matter, CSF, and motion parameters were used as covariates of no interest. Seed-based analyses were also performed using regions of interest assessed with single voxel ^1H-MRS regions showing NYX-2925 effects on Glx level. Data were band pass filtered (0.01 to 0.1 Hz) to remove linear drifts and high frequency noise. First level analysis correlated the time course from the seed to all brain voxels, creating connectivity maps for each seed region. These connectivity maps were passed up to group-level analyses comparing differences in connectivity at the visits of interest in statistical parametric mapping.
# as §3
# Seed-based, region of interest, functional connectivity analyses were performed (n=18) for regions that were used to acquire ^1H-MRS data: dACC, perigenual anterior cingulate cortex (pgACC), right anterior insula cortex, right posterior insula cortex, precuneus, thalamus, and medial prefrontal cortex.
# [3] = exploratory, placebo visit to NYX-2925 200 mg visit
compound,measurement,setting,value
"CC(C)C(=O)N1CCC[C@]12CN([C@H](C(N)=O)[C@@H](C)O)C2=O [NYX-2925, (2S, 3R)-3-hydroxy-2-((R)-5-isobutyryl-1-oxo-2,5-diazaspiro[3.4]octan-2-yl)butanamide]",connectivity Default Mode Network - left mid cingulate cortex,[1]; [3],decreased
same,connectivity Salience Network - right putamen/thalamus,[1]; [3],decreased
same,Salience Network connectivity,[1]; primary analysis,No results met significance
same,Default Mode Network connectivity,"[1]; primary analysis, n=18",No results met significance
same,Dorsal Attention Network connectivity,[1]; primary and exploratory analyses,no significant results
same,connectivity right anterior insula cortex seed - right ventral anterior thalamic nucleus,"[2]; baseline visit to NYX-2925 200 mg visit, PFWE=0.018",decreased
same,connectivity right posterior insula cortex seed - dACC,"[2]; exploratory analysis, placebo visit to NYX-2925 20 mg visit",decrease in connectivity
same,connectivity precuneus - right anterior insula and left dACC,"[2]; exploratory, baseline visit to NYX-2925 20 mg visit",decreased
same,connectivity precuneus - right mid cingulate cortex,"[2]; exploratory, placebo visit to NYX-2925 20 mg visit",Decreases in resting state functional connectivity
same,connectivity precuneus seed - right posterior/mid cingulate cortex,[2]; [3],decreased
same,connectivity thalamus seed - right anterior prefrontal cortex and bilateral precuneus,[2]; [3],decreases in connectivity
same,functional connectivity dACC seed - right posterior insula cortex,"[2]; placebo to NYX-2925 20 mg, not meeting cluster level correction significance",decreased connectivity
same,functional connectivity pgACC seed - left precuneus/precentral gyrus,"[2]; placebo visit to NYX-2925 20 mg visit, PFWE<0.00001",decreased
same,connectivity medial prefrontal cortex seed - right anterior prefrontal cortex and right mid cingulate cortex,"[2]; placebo visit to NYX-2925 200 mg visit, PFWE=0.003 and 0.036",Decreases were also observed
same,functional connectivity pgACC seed - right inferior frontal gyrus,"[2]; placebo visit to NYX-2925 200 mg visit, PFWE=0.008",decreased
same,connectivity of precuneus seed,[2]; primary analyses,no significant results
same,connectivity of right posterior insula cortex seed,[2]; primary analyses,no significant findings
same,connectivity thalamus seed - bilateral cuneus,"[2]; primary analysis, baseline visit to NYX-2925 200 mg visit, PFWE<0.00001",significant decrease in resting state connectivity
same,"functional connectivity of dACC seed to right superior temporal gyrus, left premotor/primary somatosensory cortex, right precuneus, left precentral gyrus/premotor cortex","[2]; primary analysis, placebo visit to NYX-2925 20 mg visit, PFWE 0.030-0.049",reduced connectivity; also recorded: decreased functional connectivity
same,connectivity medial prefrontal cortex seed - right anterior prefrontal/dorsolateral prefrontal cortex,"[2]; primary, baseline visit to NYX-2925 200 mg visit, PFWE=0.001",Significant decreases in resting state connectivity
